Laboratory results published in US20110165173A1, “THERAPEUTIC AGENT AND DETECTION REAGENT FOR ARTERIOSCLEROTIC DISEASE WHICH TARGETS FOR SALUSIN” (PROTEINEXPRESS CO., LTD., priority 2007, published 2011).

Experiments:
SR-A = SR-A expression by macrophages of treated apoE-deficient mice (Western blotting); format: in vivo; conditions: four weeks
Procedure: 13-week-old male apoE-deficient mice (72 mice) were divided into the following 6 groups: (i) physiological salt saline (control); (ii) salusin-α (0.6 nmol/kg/h); (iii) salusin-β (0.6 nmol/kg/h); (iv) salusin-α (0.6 nmol/kg/h)+anti-salusin-α serum (1.4 μg/kg/h); (v) salusin-β (0.6 nmol/kg/h)+anti-salusin-β serum (1.4 μg/kg/h); and (vi) anti-salusin-β serum (1.4 μg/kg/h). The mice were subjected to continuous subcutaneous administration with the use of an osmotic mini-pump for 4 to 8 weeks. The osmotic mini-pump and the solution contained therein were changed every week.
Macrophages were collected as in the experiment in (1), and the protein expression of the gene involved in foaming of macrophages (i.e., scavenger receptors CD36 and SR-A capable of recognizing oxidized LDL, intracellular cholesterol esterification enzyme ACAT1, and ABCA1, ABCG1, and SR-BI, which are involved in cholesterol efflux) was analyzed by Western blotting. For the internal standard of the macrophage function, β-actin expression was also examined. For quantification of the band concentration, Analyzer (ATTO Corporation, Tokyo) was used.

ACAT activity = ACAT activity assay by liposome reconstitution method in human monocyte-derived macrophages; format: cell-based; conditions: 0.6 nM during 7-day culture
Source text: For ACAT activity assay, the liposome reconstitution method was used. This method involves the use of a system in which the ACAT-1 protein present in the endoplasmic reticulum is reconstituted into liposomes with the use of mixed micelles comprising cholesterol/phosphatidylcholine, thereby achieving a saturated concentration level of cholesterol that can be used as an ACAT-1 substrate [Cheng D et al., J Biol Chem. 1995; 270: 685-695.]. In the case of the conventionally used microsome method, cholesterol that endogenously exists in the endoplasmic reticulum has been used as a substrate. However, in general, the endoplasmic reticulum membrane is poor in cholesterol. Therefore, it is thought that the saturated level of cholesterol capable of serving as an ACAT substrate has not been achieved, resulting in underestimation of ACAT activity. Herein, ACAT activity was assayed by adding another substrate, [^14C]oleoyl-CoA, to a reaction system and assaying the cholesterol [^14C]oleate generated through the ACAT reaction (FIG. 4).
Peripheral blood human monocytes (4×10^6 cells/2 mL) were seeded on 4 to 6 6-cm dishes and cultured for 7 days so as to differentiate into macrophages. At such time, salusin-α or salusin-β was added during culture. […] The protein concentration of the homogenized cell extraction solution was quantitatively assayed by the BCA method (Pierce). […]

salusin-α: peptide (SEQ ID NO: 1) comprising 28 amino acid residues, generated by processing from preprosalusin (SGALPPAPAAPRPALRAQRAGPAGPGAK; listed as Homo sapiens)
SR-A protein expression (SR-A; salusin-α 0.6 nmol/kg/h): did not influence | ACAT activity, percent of that of the control (ACAT activity): 50%

salusin-β: peptide (SEQ ID NO: 3) comprising 20 amino acid residues, generated by processing from preprosalusin (AIFIFIRWLLKLGHHGRAPP; listed as Homo sapiens) [reference compound]
SR-A protein expression relative to control level (SR-A; 0.6 nmol/kg/h, range given jointly for CD36, SR-A, ACAT1, P<0.05): 1.5 to 2.8 times | ACAT activity relative to control (ACAT activity): 1.8 times
